In US5571799A, “(2'-5') oligoadenylate analogues useful as inhibitors of host-v5.-graft response” (Basco, Ltd., priority 1994, dated 1996):
“Also recorded” adds a separate entry of the source.

Tests used:
[1] = system: β-lymphocytes (murine splenocytes) stimulated with lipopolysaccharide; experiment: In vitro blast-transformation of murine lymphocytes, LPS (β-lymphocyte mitogen), [3H]-thymidine; type: cell-based, mouse (CBA); conditions: for DNA synthesis at [^3 H]-thymidine [incorporated counts/min.]: LPS 0.1 μg/ml
Excerpt: (§1) The immune reactions in an organism begins with the division of lymphocytes. In vitro investigation of the lymphocyte blast-transformationreaction under the influence of mitogens makes it possible to use this model system to select chemically synthesized 2'-5'A3 analogues which suppress division of lymphocytes. Using Concanavalin A and lipopolysaccharide as mitogens, the effect of analogues on the division of T- and β-lymphocytes may be investigated.
(§2) CBA mice 8-10 weeks old were used for these experiments. A suspension of mouse splenocytes were obtained by gently teasing spleens with forceps. Lymphocytes cultivated in flat-bottomed 96-well plates (Linbro) in RPMI-1640 medium (Flow Lab.) were supplemented with 2 mM 1-glutamine, 10 μg/ml gentamicin, 10^-5 M 2-mercaptoethanol and 10% heat inactivated fetal calf serum (Flow Lab). Cultures were maintained in 5% CO2 at 37° C. One μCi of ^3 H-thymidine (Isotop®) was added to each well 4 hours before the end of the incubation period. Incorporation of ^3 H-thymidine into cellular DNA was determined by liquid scintillation counting using standard techniques. Oligoadenylate was added to the medium at the beginning of culturing to achieve the final concentration.
(§3) (Con A being a mitogen for T-lymphocytes and LPS being a mitogen for β-lymphocytes).

[2] = system: α-interferon and γ-interferon; experiment: Immune system of monkeys: α- and γ-interferon; type: in vivo, Macaque Rh. monkeys
Method: Immunosuppressive activity of the prototype 2'-5'A3 and two analogues (2'-5')A2 Ar-epoxy and (2'-5')A2 A^l-epoxy were investigated in monkeys. The experiments were performed on 4 year-old Macaque Rh. monkeys. The levels of the principal subpopulations of T-lymphocytes, IgA, IgG, IgM and the amount of α- and γ-interferon and interleukin II after administration (2'-5')olygoadenylate and its analogies at the concentration of 50 and 25 μg/kg of the body weight was investigated.
(§4) Serum levels of IgG, IgA, IgM were determined by radial immunodiffusion using antisera against human immunoglobulin A, M, G. The amount of interferon and interleukine-II were determined by the method of Lopez-Botet M. et al., 1982.

IgG, IgA, IgM = experiment: Immunoglobulins in monkeys after kidney transplantation; type: in vivo, Macaque Rh. monkeys; conditions: 50 μg/kg IV; for IgA: 2 days pre-op. 0.4; for IgM: 2 days pre-op. 0.8; for IgG: 2 days pre-op. 13
Method: as §4
The experiments were performed on 4 year-old Macaque Rh. monkeys. Each cohort consisted of 3 animals. […] The results of the experiments were evaluated clinically: by the presence or absence of urination from the ureterocutaneostoma.
During our experiments we have divided monkeys into two groups, three monkeys to each group. For the first group (2'-5')A2 Ar-epoxy was administered intravenously at concentration of 50 μg/kg two days before the operation and at the second, sixth, and twelfth day after the operation and then every sixth day. […] After transplantation kidney functions were restored within 10 hours.

[3] = system: natural compound 2'-5'A3 in blood plasma and blood cells; experiment: Duration of activity in the blood of rabbits (radioimmune and fluoroimmune detection); type: in vivo; conditions: 10 min after one injection, 10 μg/kg, rabbit
Excerpt: Duration of (2'-5')A2 Ar-epoxy Activity in the Blood of Rabbits
In order to study (2'-5')A2 Ar-epoxy pharmacodynamics, the radioimmune and fluoroimmune techniques were developed for its detection in tissue.

[4] = system: T-lymphocytes (murine splenocytes) stimulated with Concanavalin A; experiment: In vitro blast-transformation of murine lymphocytes, Con A (T-lymphocyte mitogen), [3H]-thymidine; type: cell-based, mouse (CBA); conditions: for DNA synthesis at [^3 H]-thymidine [incorporated counts/min.]: Con A 5 μg/ml
Excerpt: as §1
as §2, with “Lymphocytes cultivated in flat-bottomed 96-well plates (Linbro) in RPMI-1640 medium (Flow Lab.) were supplemented with 2 mM 1-glutamine, 10 μg/ml gentamicin, 10^-5 M 2-mercaptoethanol and 10% heat inactivated fetal calf serum (Flow Lab).” left out
as §3

[5] = single IV 25 μg/kg, day 0 (baseline)
[6] = single IV 50 μg/kg, day 0 (baseline)

Adenylyl (2'-5')adenylyl (2'-5')-9-(2,3-anhydro-β-D-ribofuranosyl) adenine disodium salt [(2'-5')A2 Ar-epoxy]
DNA synthesis at [^3 H]-thymidine [incorporated counts/min.] ([1]; 5 × 10^-6 M, control 27,133): 21,464 counts/min.
inhibition of lymphocyte blast-transformation, in words ([1]; LPS, β-lymphocytes): weaker effect of the division of β-lymphocytes
DNA synthesis at [^3 H]-thymidine [incorporated counts/min.] ([1]; Table 4, 5 × 10^-6 M, control 10,766): 7,665 counts/min.
DNA synthesis at [^3 H]-thymidine [incorporated counts/min.] ([1]; Table 4, 5 × 10^-7 M, control 10,766): 6,018 counts/min.
DNA synthesis at [^3 H]-thymidine [incorporated counts/min.] ([1]; Table 4, 5 × 10^-8 M, control 10,766): 4,767 counts/min.
DNA synthesis at [^3 H]-thymidine [incorporated counts/min.] ([1]; Table 4, 5 × 10^-9 M, control 10,766): 7,348 counts/min.
DNA synthesis at [^3 H]-thymidine [incorporated counts/min.] ([1]; Table 4, 5 × 10^-10 M, control 10,766): 672 counts/min.
DNA synthesis at [^3 H]-thymidine [incorporated counts/min.] ([1]; Table 5, 5 × 10^-6 M, control 5,513): 131 counts/min.
DNA synthesis at [^3 H]-thymidine [incorporated counts/min.] ([1]; Table 5, 5 × 10^-7 M, control 5,513): 292 counts/min.
DNA synthesis at [^3 H]-thymidine [incorporated counts/min.] ([1]; Table 5, 5 × 10^-8 M, control 5,513): 655 counts/min.
DNA synthesis at [^3 H]-thymidine [incorporated counts/min.] ([1]; Table 5, 5 × 10^-9 M, control 5,513): 3,342 counts/min.
DNA synthesis at [^3 H]-thymidine [incorporated counts/min.] ([1]; Table 5, 5 × 10^-10 M, control 5,513): 1,213 counts/min.
effect on interferon, in words ([2]; monkeys, single IV, two weeks, disodium salt): stimulates the level of α-interferon and γ-interferon in blood lymphocytes for a period of two weeks; also recorded: the quantity of α-interferon in blood plasma tends to normalize; also recorded: does not suppress the production of γ-interferon
α-interferon of lymphocytes [2, 5]: 16 Units per 10,000 lymphocytes
α-interferon of plasma [2, 5]: 8 Units per 10,000 lymphocytes
γ-interferon of lymphocytes [2, 5]: 4 Units per 10,000 lymphocytes
α-interferon of lymphocytes ([2]; single IV 25 μg/kg, day 1): 32 Units per 10,000 lymphocytes
α-interferon of plasma ([2]; single IV 25 μg/kg, day 1): 8 Units per 10,000 lymphocytes
γ-interferon of lymphocytes ([2]; single IV 25 μg/kg, day 1): 16 Units per 10,000 lymphocytes
α-interferon of lymphocytes ([2]; single IV 25 μg/kg, day 2): 32 Units per 10,000 lymphocytes
α-interferon of plasma ([2]; single IV 25 μg/kg, day 2): 4 Units per 10,000 lymphocytes
γ-interferon of lymphocytes ([2]; single IV 25 μg/kg, day 2): 16 Units per 10,000 lymphocytes
α-interferon of lymphocytes ([2]; single IV 25 μg/kg, day 12): 32 Units per 10,000 lymphocytes
α-interferon of plasma ([2]; single IV 25 μg/kg, day 12): 4 Units per 10,000 lymphocytes
γ-interferon of lymphocytes ([2]; single IV 25 μg/kg, day 12): 16 Units per 10,000 lymphocytes
α-interferon of lymphocytes ([2]; single IV 25 μg/kg, day 21): 16 Units per 10,000 lymphocytes
α-interferon of plasma ([2]; single IV 25 μg/kg, day 21): 4 Units per 10,000 lymphocytes
γ-interferon of lymphocytes ([2]; single IV 25 μg/kg, day 21): 8 Units per 10,000 lymphocytes
α-interferon of lymphocytes [2, 6]: 32 Units per 10,000 lymphocytes
α-interferon of plasma [2, 6]: 16 Units per 10,000 lymphocytes
γ-interferon of lymphocytes [2, 6]: 4 Units per 10,000 lymphocytes
α-interferon of lymphocytes ([2]; single IV 50 μg/kg, day 1): 32 Units per 10,000 lymphocytes
α-interferon of plasma ([2]; single IV 50 μg/kg, day 1): 32 Units per 10,000 lymphocytes
γ-interferon of lymphocytes ([2]; single IV 50 μg/kg, day 1): 8 Units per 10,000 lymphocytes
α-interferon of lymphocytes ([2]; single IV 50 μg/kg, day 2): 64 Units per 10,000 lymphocytes
α-interferon of plasma ([2]; single IV 50 μg/kg, day 2): 4 Units per 10,000 lymphocytes
γ-interferon of lymphocytes ([2]; single IV 50 μg/kg, day 2): 32 Units per 10,000 lymphocytes
α-interferon of lymphocytes ([2]; single IV 50 μg/kg, day 12): 64 Units per 10,000 lymphocytes
α-interferon of plasma ([2]; single IV 50 μg/kg, day 12): 4 Units per 10,000 lymphocytes
γ-interferon of lymphocytes ([2]; single IV 50 μg/kg, day 12): 32 Units per 10,000 lymphocytes
α-interferon of lymphocytes ([2]; single IV 50 μg/kg, day 21): 32 Units per 10,000 lymphocytes
α-interferon of plasma ([2]; single IV 50 μg/kg, day 21): 4 Units per 10,000 lymphocytes
γ-interferon of lymphocytes ([2]; single IV 50 μg/kg, day 21): 8 Units per 10,000 lymphocytes
IgA (IgG, IgA, IgM; day 5 post-op.): 2.07 g/L
IgM (IgG, IgA, IgM; day 5 post-op.): 0.75 g/L
IgG (IgG, IgA, IgM; day 5 post-op.): 12.2 g/L
IgA (IgG, IgA, IgM; day 8 post-op.): 2.5 g/L
IgM (IgG, IgA, IgM; day 8 post-op.): 0.86 g/L
IgG (IgG, IgA, IgM; day 8 post-op.): 12.75 g/L
decrease of the level of natural compounds in blood plasma [3]: 10 fold
increase of concentration of natural compounds in blood cells [3]: 10 fold
DNA synthesis at [^3 H]-thymidine [incorporated counts/min.] ([4]; 5 × 10^-6 M, control 22,296): 16,399 counts/min.
inhibition of lymphocyte blast-transformation, in words ([4]; Con A, T-lymphocytes): suppresses the T-lymphocyte division to a greater extent
DNA synthesis at [^3 H]-thymidine [incorporated counts/min.] ([4]; Table 4, 1 × 10^-5 M, control 5,428): 4,172 counts/min.
DNA synthesis at [^3 H]-thymidine [incorporated counts/min.] ([4]; Table 4, 5 × 10^-6 M, control 5,428): 1,733 counts/min.
DNA synthesis at [^3 H]-thymidine [incorporated counts/min.] ([4]; Table 4, 5 × 10^-7 M, control 5,428): 3,865 counts/min.
DNA synthesis at [^3 H]-thymidine [incorporated counts/min.] ([4]; Table 4, 5 × 10^-8 M, control 5,428): 5,383 counts/min.
DNA synthesis at [^3 H]-thymidine [incorporated counts/min.] ([4]; Table 4, 5 × 10^-9 M, control 5,428): 1,599 counts/min.
DNA synthesis at [^3 H]-thymidine [incorporated counts/min.] ([4]; Table 4, 5 × 10^-10 M, control 5,428): 777 counts/min.
DNA synthesis at [^3 H]-thymidine [incorporated counts/min.] ([4]; Table 4, 5 × 10^-11 M, control 5,428): 5,271 counts/min.
DNA synthesis at [^3 H]-thymidine [incorporated counts/min.] ([4]; Table 5, 1 × 10^-5 M, control 5,108): 2,960 counts/min.
DNA synthesis at [^3 H]-thymidine [incorporated counts/min.] ([4]; Table 5, 5 × 10^-6 M, control 5,108): 4,732 counts/min.
DNA synthesis at [^3 H]-thymidine [incorporated counts/min.] ([4]; Table 5, 5 × 10^-7 M, control 5,108): 2,237 counts/min.
DNA synthesis at [^3 H]-thymidine [incorporated counts/min.] ([4]; Table 5, 5 × 10^-8 M, control 5,108): 1,355 counts/min.
DNA synthesis at [^3 H]-thymidine [incorporated counts/min.] ([4]; Table 5, 5 × 10^-9 M, control 5,108): 6,915 counts/min.
DNA synthesis at [^3 H]-thymidine [incorporated counts/min.] ([4]; Table 5, 5 × 10^-10 M, control 5,108): 1,425 counts/min.
